Test system: HaCaTa cells

| Compound | protection from drug-induced toxicity (Absorbance units) (0.625 mM NAC plus cooling at 22° C., extremely high doses of 4-OH-CP (FIG. 5)) | cytoprotection from combinatorial drug treatment (AC), versus cooling alone (0.625 mM NAC plus cooling at 26° C. or 22° C., sequential doxorubicin 3 μg/ml (1 h) and 4-OH-CP 5 μg/ml (1 h) (FIG. 7)) | cytoprotection of cooling at 26° C. with inhibition of ROS, compared with 22° C. at same CP concentration (0.625 mM NAC plus cooling at 26° C., 4-OH-CP (FIG. 4 vs FIG. 3)) | protection from drug-induced toxicity (% relative to control) (0.625 mM NAC plus cooling at 26° C., extremely high doses of doxorubicin (FIG. 6)) | cytotoxicity of the drug in keratinocytes |
| --- | --- | --- | --- | --- | --- |
| CC(=O)N[C@@H](CS)C(=O)O [NAC, N-acetyl-cysteine] | strikingly high levels of protection | better cytoprotection | highly cytoprotective | strikingly high levels of protection |  |
| COc1cccc2c1C(=O)c1c(O)c3c(c(O)c1C2=O)C[C@@](O)(C(=O)CO)C[C@@H]3O[C@H]1C[C@H](N)[C@H](O)[C@H](C)O1 [doxorubicin] |  |  |  |  | nearly total cytotoxicity (death) |
